# Source: patent US9738634B2, “Heterocyclic amide compound and herbicide” (SYNGENTA PARTICIPATIONS AG, priority 2013, dated 2017)
# Experiments:
# Type in all cases: in vivo
# chickweed = experiment: Test Example 3: weedkilling efficacy through soil treatment; N: chickweed; details: soil treatment
# In short: (§1)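 Crop and weed responses were judged three weeks after a uniform surface spray of the water-diluted emulsion at the given g/ha rate. Seeds sat beneath about 1.5 cm of sterilized diluvial soil, and boxes stood in a greenhouse at 25 to 30° C.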
# green foxtail = experiment: Test Example 3: weedkilling efficacy through soil treatment; E: green foxtail; details: soil treatment
# In short: as §1
# rapeseed = experiment: Test Example 3: soil treatment, effect on crop; g: rapeseed; details: soil treatment
# In short: as §1
# barnyard grass [1] = experiment: Test Example 1: weedkilling efficacy, preemergent weed treatment in the submerged state; A: barnyard grass
# In short: (§2)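 Alluvial soil in Wagner pots flooded to 4 cm; barnyard grass, bulrush and oval-leafed pondweed seeds sown, then 2.5-leaf rice seedlings transplanted. Same day, emulsified compound diluted in water to set g/ha dosages and applied to water surface; greenhouse 25–30 °C, effect scored by criteria after 3 weeks.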
# transplanted rice = experiment: Test Example 1: preemergent weed treatment in the submerged state, effect on crop; a: transplanted rice
# In short: as §2
# oval-leafed pondweed [2] = experiment: Test Example 2: weedkilling efficacy, growth period weed treatment in the submerged state; C: oval-leafed pondweed
# In short: (§3)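 First, alluvial soil in pots is flooded to 4 cm and mixed seed is sown. Next, plants grow in a greenhouse at 25 to 30° C until the 1-2 leaf stage. Then diluted emulsion is applied onto the water surface at the given g/ha rate, and injury is assessed after 3 weeks.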
# Italian ryegrass = experiment: Test Example 3: weedkilling efficacy through soil treatment; I: Italian ryegrass; details: soil treatment
# In short: as §1
# redroot pigweed = experiment: Test Example 3: weedkilling efficacy through soil treatment; L: redroot pigweed; details: soil treatment
# In short: as §1
# oval-leafed pondweed [3] = experiment: Test Example 1: weedkilling efficacy, preemergent weed treatment in the submerged state; C: oval-leafed pondweed
# In short: as §2
# wheat = experiment: Test Example 3: soil treatment, effect on crop; e: wheat; details: soil treatment
# In short: as §1
# fig-leafed goosefoot = experiment: Test Example 3: weedkilling efficacy through soil treatment; M: fig-leafed goosefoot; details: soil treatment, treatment dosage 320 g/ha
# In short: as §1
# corn = experiment: Test Example 3: soil treatment, effect on crop; c: corn; details: soil treatment
# In short: as §1
# directly sown rice = experiment: Test Example 3: soil treatment, effect on crop; b: directly sown rice; details: soil treatment
# In short: as §1
# bulrush [4] = experiment: Test Example 2: weedkilling efficacy, growth period weed treatment in the submerged state; B: bulrush
# In short: as §3
# birds-eye speedwell = experiment: Test Example 3: weedkilling efficacy through soil treatment; p: birds-eye speedwell; details: soil treatment
# In short: as §1
# barnyard grass [5] = experiment: Test Example 3: weedkilling efficacy through soil treatment; F: barnyard grass; details: soil treatment
# In short: as §1
# bulrush [6] = experiment: Test Example 1: weedkilling efficacy, preemergent weed treatment in the submerged state; B: bulrush
# In short: as §2
# beet = experiment: Test Example 3: soil treatment, effect on crop; f: beet; details: soil treatment
# In short: as §1
# Indian mallow = experiment: Test Example 3: weedkilling efficacy through soil treatment; K: Indian mallow; details: soil treatment
# In short: as §1
# barnyard grass [7] = experiment: Test Example 2: weedkilling efficacy, growth period weed treatment in the submerged state; A: barnyard grass
# In short: as §3
# black-grass = experiment: Test Example 3: weedkilling efficacy through soil treatment; H: black-grass; details: soil treatment
# In short: as §1
# catchweed = experiment: Test Example 3: weedkilling efficacy through soil treatment; O: catchweed; details: soil treatment
# In short: as §1
# common wind-grass = experiment: Test Example 3: weedkilling efficacy through soil treatment; J: common wind-grass; details: soil treatment
# In short: as §1
# wild oat = experiment: Test Example 3: weedkilling efficacy through soil treatment; G: wild oat; details: soil treatment
# In short: as §1
# soybean = experiment: Test Example 3: soil treatment, effect on crop; d: soybean; details: soil treatment
# In short: as §1
# crabgrass = experiment: Test Example 3: weedkilling efficacy through soil treatment; D: crabgrass; details: soil treatment, treatment dosage 315 g/ha
# In short: as §1
structure (smiles),measurement,setting,value
CC(C)(C(=O)Nc1nncs1)N1COCN(c2ccccc2)C1=O [A-1-12],"N: chickweed, weedkilling efficacy grade",chickweed; treatment dosage 320 g/ha,"3 (weed kill ratio 40% or more, less than 70%)"
same,"E: green foxtail, weedkilling efficacy grade",green foxtail; treatment dosage 320 g/ha,"5 (weed kill ratio 90% or more, (practically complete withering))"
same,"g: rapeseed, effect on crop grade",rapeseed; treatment dosage 320 g/ha,0 (weed kill ratio 5% or less (practically no effect))
same,"A: barnyard grass, weed kill grade",barnyard grass [1]; treatment dosage 320 g/ha,"5 (weed kill ratio 90% or more, (practically complete withering))"
same,"a: transplanted rice, effect on crop grade",transplanted rice; treatment dosage 320 g/ha,0 (weed kill ratio 5% or less (practically no effect))
same,C (oval-leafed pondweed) weedkilling efficacy grade,oval-leafed pondweed [2]; treatment dosage 320 g/ha,"3 (weed kill ratio 40% or more, less than 70%)"
same,"I: Italian ryegrass, weedkilling efficacy grade",Italian ryegrass; treatment dosage 320 g/ha,"5 (weed kill ratio 90% or more, (practically complete withering))"
same,"L: redroot pigweed, weedkilling efficacy grade",redroot pigweed; treatment dosage 320 g/ha,0 (weed kill ratio 5% or less (practically no effect))
same,"C: oval-leafed pondweed, weed kill grade",oval-leafed pondweed [3]; treatment dosage 320 g/ha,"4 (weed kill ratio 70% or more, less than 90%)"
same,"e: wheat, effect on crop grade",wheat; treatment dosage 320 g/ha,0 (weed kill ratio 5% or less (practically no effect))
same,"M: fig-leafed goosefoot, weedkilling efficacy grade",fig-leafed goosefoot,"4 (weed kill ratio 70% or more, less than 90%)"
same,"c: corn, effect on crop grade",corn; treatment dosage 320 g/ha,0 (weed kill ratio 5% or less (practically no effect))
same,"b: directly sown rice, effect on crop grade",directly sown rice; treatment dosage 320 g/ha,"5 (weed kill ratio 90% or more, (practically complete withering))"
same,B (bulrush) weedkilling efficacy grade,bulrush [4]; treatment dosage 320 g/ha,"5 (weed kill ratio 90% or more, (practically complete withering))"
same,"P: birds-eye speedwell, weedkilling efficacy grade",birds-eye speedwell; treatment dosage 320 g/ha,"3 (weed kill ratio 40% or more, less than 70%)"
same,"F: barnyard grass, weedkilling efficacy grade",barnyard grass [5]; treatment dosage 320 g/ha,"3 (weed kill ratio 40% or more, less than 70%)"
same,"B: bulrush, weed kill grade",bulrush [6]; treatment dosage 320 g/ha,"5 (weed kill ratio 90% or more, (practically complete withering))"
same,"f: beet, effect on crop grade",beet; treatment dosage 320 g/ha,"2 (weed kill ratio 20% or more, less than 40%)"
same,"K: Indian mallow, weedkilling efficacy grade",Indian mallow; treatment dosage 320 g/ha,0 (weed kill ratio 5% or less (practically no effect))
same,A (barnyard grass) weedkilling efficacy grade,barnyard grass [7]; treatment dosage 320 g/ha,"1 (weed kill ratio 5% or more, less than 20%)"
same,"H: black-grass, weedkilling efficacy grade",black-grass; treatment dosage 320 g/ha,"5 (weed kill ratio 90% or more, (practically complete withering))"
same,"O: catchweed, weedkilling efficacy grade",catchweed; treatment dosage 320 g/ha,0 (weed kill ratio 5% or less (practically no effect))
same,"J: common wind-grass, weedkilling efficacy grade",common wind-grass; treatment dosage 320 g/ha,"5 (weed kill ratio 90% or more, (practically complete withering))"
same,"G: wild oat, weedkilling efficacy grade",wild oat; treatment dosage 320 g/ha,"3 (weed kill ratio 40% or more, less than 70%)"
same,"d: soybean, effect on crop grade",soybean; treatment dosage 320 g/ha,"4 (weed kill ratio 70% or more, less than 90%)"
COc1cc(Cl)nc(NC(=O)C(C)(C)N2COCN(c3ccccc3)C2=O)c1 [A-2-33],"N: chickweed, weedkilling efficacy grade",chickweed; treatment dosage 315 g/ha,"4 (weed kill ratio 70% or more, less than 90%)"
same,"E: green foxtail, weedkilling efficacy grade",green foxtail; treatment dosage 315 g/ha,"5 (weed kill ratio 90% or more, (practically complete withering))"
same,"g: rapeseed, effect on crop grade",rapeseed; treatment dosage 315 g/ha,"3 (weed kill ratio 40% or more, less than 70%)"
same,"A: barnyard grass, weed kill grade",barnyard grass [1]; treatment dosage 315 g/ha,"5 (weed kill ratio 90% or more, (practically complete withering))"
same,"a: transplanted rice, effect on crop grade",transplanted rice; treatment dosage 315 g/ha,"4 (weed kill ratio 70% or more, less than 90%)"
same,C (oval-leafed pondweed) weedkilling efficacy grade,oval-leafed pondweed [2]; treatment dosage 315 g/ha,"5 (weed kill ratio 90% or more, (practically complete withering))"
same,"I: Italian ryegrass, weedkilling efficacy grade",Italian ryegrass; treatment dosage 315 g/ha,"5 (weed kill ratio 90% or more, (practically complete withering))"
same,"L: redroot pigweed, weedkilling efficacy grade",redroot pigweed; treatment dosage 315 g/ha,"2 (weed kill ratio 20% or more, less than 40%)"
same,"C: oval-leafed pondweed, weed kill grade",oval-leafed pondweed [3]; treatment dosage 315 g/ha,"5 (weed kill ratio 90% or more, (practically complete withering))"
same,"e: wheat, effect on crop grade",wheat; treatment dosage 315 g/ha,0 (weed kill ratio 5% or less (practically no effect))
same,"c: corn, effect on crop grade",corn; treatment dosage 315 g/ha,0 (weed kill ratio 5% or less (practically no effect))
same,"b: directly sown rice, effect on crop grade",directly sown rice; treatment dosage 315 g/ha,"3 (weed kill ratio 40% or more, less than 70%)"
same,B (bulrush) weedkilling efficacy grade,bulrush [4]; treatment dosage 315 g/ha,"5 (weed kill ratio 90% or more, (practically complete withering))"
same,"D: crabgrass, weedkilling efficacy grade",crabgrass,"5 (weed kill ratio 90% or more, (practically complete withering))"
same,"P: birds-eye speedwell, weedkilling efficacy grade",birds-eye speedwell; treatment dosage 315 g/ha,"5 (weed kill ratio 90% or more, (practically complete withering))"
same,"F: barnyard grass, weedkilling efficacy grade",barnyard grass [5]; treatment dosage 315 g/ha,"4 (weed kill ratio 70% or more, less than 90%)"
same,"B: bulrush, weed kill grade",bulrush [6]; treatment dosage 315 g/ha,"5 (weed kill ratio 90% or more, (practically complete withering))"
same,"f: beet, effect on crop grade",beet; treatment dosage 315 g/ha,"1 (weed kill ratio 5% or more, less than 20%)"
same,"K: Indian mallow, weedkilling efficacy grade",Indian mallow; treatment dosage 315 g/ha,0 (weed kill ratio 5% or less (practically no effect))
same,A (barnyard grass) weedkilling efficacy grade,barnyard grass [7]; treatment dosage 315 g/ha,"5 (weed kill ratio 90% or more, (practically complete withering))"
same,"H: black-grass, weedkilling efficacy grade",black-grass; treatment dosage 315 g/ha,"5 (weed kill ratio 90% or more, (practically complete withering))"
same,"O: catchweed, weedkilling efficacy grade",catchweed; treatment dosage 315 g/ha,"5 (weed kill ratio 90% or more, (practically complete withering))"
same,"J: common wind-grass, weedkilling efficacy grade",common wind-grass; treatment dosage 315 g/ha,"5 (weed kill ratio 90% or more, (practically complete withering))"
same,"G: wild oat, weedkilling efficacy grade",wild oat; treatment dosage 315 g/ha,"4 (weed kill ratio 70% or more, less than 90%)"
same,"d: soybean, effect on crop grade",soybean; treatment dosage 315 g/ha,0 (weed kill ratio 5% or less (practically no effect))
CC(C)(C(=O)Nc1cccc(CF)n1)N1COCN(c2ccccc2)C1=O [A-2-39],"N: chickweed, weedkilling efficacy grade",chickweed; treatment dosage 315 g/ha,"2 (weed kill ratio 20% or more, less than 40%)"
same,"E: green foxtail, weedkilling efficacy grade",green foxtail; treatment dosage 315 g/ha,"5 (weed kill ratio 90% or more, (practically complete withering))"
same,"g: rapeseed, effect on crop grade",rapeseed; treatment dosage 315 g/ha,"2 (weed kill ratio 20% or more, less than 40%)"
same,"A: barnyard grass, weed kill grade",barnyard grass [1]; treatment dosage 315 g/ha,"5 (weed kill ratio 90% or more, (practically complete withering))"
same,"a: transplanted rice, effect on crop grade",transplanted rice; treatment dosage 315 g/ha,"1 (weed kill ratio 5% or more, less than 20%)"
same,C (oval-leafed pondweed) weedkilling efficacy grade,oval-leafed pondweed [2]; treatment dosage 315 g/ha,"4 (weed kill ratio 70% or more, less than 90%)"
same,"I: Italian ryegrass, weedkilling efficacy grade",Italian ryegrass; treatment dosage 315 g/ha,"5 (weed kill ratio 90% or more, (practically complete withering))"
same,"L: redroot pigweed, weedkilling efficacy grade",redroot pigweed; treatment dosage 315 g/ha,0 (weed kill ratio 5% or less (practically no effect))
same,"C: oval-leafed pondweed, weed kill grade",oval-leafed pondweed [3]; treatment dosage 315 g/ha,"5 (weed kill ratio 90% or more, (practically complete withering))"
same,"e: wheat, effect on crop grade",wheat; treatment dosage 315 g/ha,"1 (weed kill ratio 5% or more, less than 20%)"
same,"c: corn, effect on crop grade",corn; treatment dosage 315 g/ha,0 (weed kill ratio 5% or less (practically no effect))
same,"b: directly sown rice, effect on crop grade",directly sown rice; treatment dosage 315 g/ha,"4 (weed kill ratio 70% or more, less than 90%)"
same,B (bulrush) weedkilling efficacy grade,bulrush [4]; treatment dosage 315 g/ha,"5 (weed kill ratio 90% or more, (practically complete withering))"
same,"D: crabgrass, weedkilling efficacy grade",crabgrass,"5 (weed kill ratio 90% or more, (practically complete withering))"
same,"P: birds-eye speedwell, weedkilling efficacy grade",birds-eye speedwell; treatment dosage 315 g/ha,"5 (weed kill ratio 90% or more, (practically complete withering))"
same,"F: barnyard grass, weedkilling efficacy grade",barnyard grass [5]; treatment dosage 315 g/ha,"5 (weed kill ratio 90% or more, (practically complete withering))"
same,"B: bulrush, weed kill grade",bulrush [6]; treatment dosage 315 g/ha,"5 (weed kill ratio 90% or more, (practically complete withering))"
same,"f: beet, effect on crop grade",beet; treatment dosage 315 g/ha,"3 (weed kill ratio 40% or more, less than 70%)"
same,"K: Indian mallow, weedkilling efficacy grade",Indian mallow; treatment dosage 315 g/ha,0 (weed kill ratio 5% or less (practically no effect))
same,A (barnyard grass) weedkilling efficacy grade,barnyard grass [7]; treatment dosage 315 g/ha,"4 (weed kill ratio 70% or more, less than 90%)"
same,"H: black-grass, weedkilling efficacy grade",black-grass; treatment dosage 315 g/ha,"5 (weed kill ratio 90% or more, (practically complete withering))"
same,"O: catchweed, weedkilling efficacy grade",catchweed; treatment dosage 315 g/ha,"5 (weed kill ratio 90% or more, (practically complete withering))"
same,"J: common wind-grass, weedkilling efficacy grade",common wind-grass; treatment dosage 315 g/ha,"5 (weed kill ratio 90% or more, (practically complete withering))"
same,"G: wild oat, weedkilling efficacy grade",wild oat; treatment dosage 315 g/ha,"4 (weed kill ratio 70% or more, less than 90%)"
same,"d: soybean, effect on crop grade",soybean; treatment dosage 315 g/ha,0 (weed kill ratio 5% or less (practically no effect))
